Measurements from patent US20050107386A1, “Methods of treating diseases and disorders by targeting multiple kinases” (priority 2003, published 2005).

Tests used:
AMPK(r) = AMPK(r) kinase assay; assay type: biochemical, rat; settings: 3 μM; percent of control kinase activity
Description: (§1) Six compounds (presumptive single agents) were tested against a panel of 50 kinases. The results are presented in Table 2; numbers for each kinase indicate the percent of control kinase activity in the presence of a 3μM concentration of the indicated agent.
(§2) Agents that target two or more different kinases are useful in the methods of the invention as described elsewhere herein. Such compounds may be identified, and their effect on certain kinases may be identified, using the assays briefly described below in Examples 4-83. Each of these assays was carried out as described in Davies et al., Biochem. J., 351:95-105 (2000). All assays were carried out at 10 μM ATP unless otherwise noted.
(§3) In a final reaction volume of 25 μl, AMPK(r) (5-10 mU) is incubated with 50 mM Hepes pH 7.4, 1 mM DTT, 0.02% Brij-35, 200 μM AMP, 200 μM […] (SEQ ID NO:4), 10 mM MgAcetate and [γ-^33P-ATP] (Specific activity approx. 500 cpm/pmol, concentration as required). The reaction is initiated by the addition of Mg^2+ [γ-^33P-ATP]. After incubation for 40 minutes at room temperature, the reaction is stopped by the addition of 5 μl of a 3% phosphoric acid solution. 10 μl of the reaction is then spotted onto a P30 filtermat and washed three times for 5 minutes in 75 mM phosphoric acid and once in methanol prior to drying and scintillation counting.

Blk(m) = Blk(m) (Mus musculus, UniProt P16277); assay: Blk(m) kinase assay; assay type: biochemical; settings: 3 μM; percent of control kinase activity
Chain of Blk(m) (P16277 whole entry): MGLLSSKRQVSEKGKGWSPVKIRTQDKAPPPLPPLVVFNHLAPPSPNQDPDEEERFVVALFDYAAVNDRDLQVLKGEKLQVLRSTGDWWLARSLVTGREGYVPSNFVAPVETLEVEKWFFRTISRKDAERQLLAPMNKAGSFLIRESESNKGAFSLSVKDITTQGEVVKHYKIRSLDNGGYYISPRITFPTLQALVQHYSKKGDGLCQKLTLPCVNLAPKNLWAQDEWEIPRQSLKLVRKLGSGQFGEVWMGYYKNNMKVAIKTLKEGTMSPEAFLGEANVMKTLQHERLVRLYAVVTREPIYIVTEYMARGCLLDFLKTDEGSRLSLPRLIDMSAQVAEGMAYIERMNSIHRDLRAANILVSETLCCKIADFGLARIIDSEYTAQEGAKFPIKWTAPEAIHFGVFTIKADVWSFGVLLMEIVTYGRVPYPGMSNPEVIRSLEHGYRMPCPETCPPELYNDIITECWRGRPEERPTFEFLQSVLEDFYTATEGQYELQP
Description: as §1, §2
(§4) In a final reaction volume of 25 μl, Blk (m) (5-10 mU) is incubated with 50 mM Tris pH 7.5, 0.1 mM EGTA, 0.1 mM NaVanadate, 0.1% β-mercaptoethanol, 0.1 mg/ml poly(Glu, Tyr) 4:1, 10 mM MgAcetate and [γ-^33P-ATP] (specific activity approx. 500 cpm/pmol, concentration as required). The reaction is initiated by the addition of Mg^2+ [γ-^33P-ATP]. After incubation for 40 minutes at room temperature, the reaction is stopped by the addition of 5 μl of a 3% phosphoric acid solution. 10 μl of the reaction is then spotted onto a Filtermat A and washed three times for 5 minutes in 75 mM phosphoric acid and once in methanol prior to drying and scintillation counting.

CaMKII(r) = CaMKII(r) kinase assay; assay type: biochemical, rat; settings: 3 μM; percent of control kinase activity
Description: as §1, §2
as §3, with “μl, CaMKII (r)” for “μl, AMPK(r)”, “with 40” for “with 50”, “7.4, 5” for “7.4, 1”, “mM CaCl2, 30 μg/ml calmodulin, 30” for “mM DTT, 0.02% Brij-35, 200 μM AMP, 200”, “ID NO:11),” for “ID NO:4),”, “[γ-^33P-ATP] (specific” for “[γ-^33P-ATP] (Specific”

MAPK2(h) = MAPK2(h) (Homo sapiens, UniProt P28482); assay: MAPK2(h) kinase assay; assay type: biochemical; settings: 3 μM; percent of control kinase activity
Chain of MAPK2(h) (P28482 whole entry): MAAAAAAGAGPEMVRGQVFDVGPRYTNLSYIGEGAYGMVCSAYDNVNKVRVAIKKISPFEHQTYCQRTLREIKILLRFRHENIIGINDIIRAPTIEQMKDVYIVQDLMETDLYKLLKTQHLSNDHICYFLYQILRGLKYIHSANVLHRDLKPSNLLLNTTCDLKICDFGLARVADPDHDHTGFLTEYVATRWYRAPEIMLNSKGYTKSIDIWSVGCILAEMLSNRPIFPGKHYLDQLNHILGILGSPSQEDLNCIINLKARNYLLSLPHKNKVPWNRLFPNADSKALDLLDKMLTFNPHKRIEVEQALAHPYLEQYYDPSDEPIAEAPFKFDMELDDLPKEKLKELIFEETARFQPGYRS
Description: as §1, §2
as §4, with “μl, MAPK2(h)” for “μl, Blk (m)”, “with 25” for “with 50”, “7.5, 0.02” for “7.5, 0.1”, “EGTA, 0.33” for “EGTA, 0.1 mM NaVanadate, 0.1% β-mercaptoethanol, 0.1”, “mg/ml myelin basic protein,” for “mg/ml poly(Glu, Tyr) 4:1,”, “a P30 filtermat” for “a Filtermat A”

PKCε(h) = target: T1, PKCε(h) (Homo sapiens, UniProt Q02156); assay: PKCε(h) kinase assay; assay type: biochemical; settings: 3 μM; percent of control kinase activity
T1 sequence (Q02156 1-737): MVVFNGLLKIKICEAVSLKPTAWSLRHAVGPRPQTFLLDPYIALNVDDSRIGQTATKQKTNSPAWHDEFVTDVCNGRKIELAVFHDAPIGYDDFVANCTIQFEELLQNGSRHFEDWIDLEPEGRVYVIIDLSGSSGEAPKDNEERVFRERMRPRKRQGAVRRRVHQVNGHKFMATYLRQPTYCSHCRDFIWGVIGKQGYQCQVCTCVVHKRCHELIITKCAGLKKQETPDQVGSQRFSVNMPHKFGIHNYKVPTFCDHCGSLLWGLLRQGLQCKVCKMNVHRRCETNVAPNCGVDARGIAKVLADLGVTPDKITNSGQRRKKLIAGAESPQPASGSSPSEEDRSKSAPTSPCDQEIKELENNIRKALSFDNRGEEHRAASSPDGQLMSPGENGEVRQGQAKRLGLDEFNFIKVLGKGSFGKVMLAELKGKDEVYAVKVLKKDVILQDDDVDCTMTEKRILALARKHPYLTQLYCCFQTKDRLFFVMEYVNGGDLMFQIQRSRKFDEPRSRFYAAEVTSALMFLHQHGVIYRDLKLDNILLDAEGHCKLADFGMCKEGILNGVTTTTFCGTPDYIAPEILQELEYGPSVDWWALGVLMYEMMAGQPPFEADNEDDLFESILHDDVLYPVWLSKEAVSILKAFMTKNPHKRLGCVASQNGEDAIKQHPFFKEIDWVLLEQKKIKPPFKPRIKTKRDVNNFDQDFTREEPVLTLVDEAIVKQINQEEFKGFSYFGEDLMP
Description: as §1, §2
as §3, with “μl, PKCε(h)” for “μl, AMPK(r)”, “with 20” for “with 50”, “7.4, 0.03% Triton X-100, 0.1 mg/ml phosphatidylserine, 10 μg/ml diacylglycerol, 50” for “7.4, 1 mM DTT, 0.02% Brij-35, 200 μM AMP, 200”, “ID NO: 18),” for “ID NO:4),”

Rsk1(h) = Rsk1(h) (Homo sapiens, UniProt Q15418); assay: Rsk1(h) kinase assay; assay type: biochemical; settings: for Inhibitory activity (% of control), Rsk1(h): 3 μM, percent of control kinase activity
Chain of Rsk1(h) (Q15418 whole entry): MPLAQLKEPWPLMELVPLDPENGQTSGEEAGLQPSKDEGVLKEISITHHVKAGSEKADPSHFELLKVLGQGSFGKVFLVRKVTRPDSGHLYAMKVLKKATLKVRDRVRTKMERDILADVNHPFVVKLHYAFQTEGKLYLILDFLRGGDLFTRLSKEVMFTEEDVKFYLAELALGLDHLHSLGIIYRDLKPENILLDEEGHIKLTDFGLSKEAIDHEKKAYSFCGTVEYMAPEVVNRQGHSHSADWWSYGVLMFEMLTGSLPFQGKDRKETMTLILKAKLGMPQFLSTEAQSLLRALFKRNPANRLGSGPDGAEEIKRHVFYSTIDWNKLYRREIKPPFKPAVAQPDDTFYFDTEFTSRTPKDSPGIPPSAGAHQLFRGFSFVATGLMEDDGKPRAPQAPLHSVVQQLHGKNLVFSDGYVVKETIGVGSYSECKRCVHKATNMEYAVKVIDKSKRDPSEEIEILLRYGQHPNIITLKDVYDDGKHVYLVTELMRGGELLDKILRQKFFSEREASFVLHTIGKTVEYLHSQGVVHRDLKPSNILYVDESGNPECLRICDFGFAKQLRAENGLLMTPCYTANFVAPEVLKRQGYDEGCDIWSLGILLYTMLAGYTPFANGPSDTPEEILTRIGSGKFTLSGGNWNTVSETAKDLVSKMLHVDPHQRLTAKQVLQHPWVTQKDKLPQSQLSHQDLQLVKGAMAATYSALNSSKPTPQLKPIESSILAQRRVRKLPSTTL

COc1ccc2cc(-c3n[nH]c4ccc(-c5n[nH]c(CN6CCOCC6)n5)cc34)ccc2c1 [CC001, 3-(6-Methoxynaphthalen-2-yl)-5-(5-Morpholin-4-Ylmethyl-1H-[1,2,4]Triazol-3-yl)-1H-Indazole]
Inhibitory activity (% of control), AMPK(r) (AMPK(r)): 52 % of control | Inhibitory activity (% of control), Blk(m) (Blk(m)): 25 % of control | Inhibitory activity (% of control), CaMKII(r) (CaMKII(r)): 64 % of control | Inhibitory activity (% of control), MAPK2(h) (MAPK2(h)): 0 % of control | Inhibitory activity (% of control), PKCε(h) (PKCε(h)): 82 % of control | Inhibitory activity (% of control), Rsk1(h) (Rsk1(h)): 4 % of control

CC(C)Cc1nc(-c2ccc3[nH]nc(-c4ccc5cc(OCCN6CCCC6)ccc5c4)c3c2)n[nH]1 [CC002, 5-(5-Isobutyl-1H-[1,2,4]Triazol-3-yl)-3-[6-(2-Pyrrolidin-1-yl-Ethoxy)-Naphthalen-2-yl]-1H-Indazole]
Inhibitory activity (% of control), AMPK(r) (AMPK(r)): 4 % of control | Inhibitory activity (% of control), Blk(m) (Blk(m)): 11 % of control | Inhibitory activity (% of control), CaMKII(r) (CaMKII(r)): 26 % of control | Inhibitory activity (% of control), MAPK2(h) (MAPK2(h)): 2 % of control | Inhibitory activity (% of control), PKCε(h) (PKCε(h)): 58 % of control | Inhibitory activity (% of control), Rsk1(h) (Rsk1(h)): 3 % of control

CC(C)(C)Cc1nc(-c2ccc3[nH]nc(-c4ccc5cc(OCc6ccccn6)ccc5c4)c3c2)n[nH]1 [CC004, 5-[5-(2,2-Dimethyl-propyl)-1H-[1,2,4]triazol-3-yl]-3-[6-(pyridine-2-ylmethoxy)-naphthalen-2-yl]-1H-indazole]
Inhibitory activity (% of control), AMPK(r) (AMPK(r)): 54 % of control | Inhibitory activity (% of control), Blk(m) (Blk(m)): 43 % of control | Inhibitory activity (% of control), CaMKII(r) (CaMKII(r)): 52 % of control | Inhibitory activity (% of control), MAPK2(h) (MAPK2(h)): 1 % of control | Inhibitory activity (% of control), PKCε(h) (PKCε(h)): 105 % of control | Inhibitory activity (% of control), Rsk1(h) (Rsk1(h)): 29 % of control | inhibitory activity against Rsk1, in words (Rsk1(h); summary of Table 2): good inhibitory activity

CCN1CCC[C@H]1COc1ccc2cc(-c3n[nH]c4ccc(-c5nc(CC(C)(C)C)n[nH]5)cc34)ccc2c1 [CC005, 2-[((2s)-1-ethylpyrrolidin-2-yl)methoxy]-6-{5-[3-(2,2-Dimethylpropyl)(1H-1,2,4,-triazol-5-yl)](1H-indazol-3-yl)}naphthalene]
Inhibitory activity (% of control), AMPK(r) (AMPK(r)): 2 % of control | Inhibitory activity (% of control), Blk(m) (Blk(m)): 4 % of control | Inhibitory activity (% of control), CaMKII(r) (CaMKII(r)): 4 % of control | Inhibitory activity (% of control), MAPK2(h) (MAPK2(h)): 2 % of control | Inhibitory activity (% of control), PKCε(h) (PKCε(h)): 84 % of control | Inhibitory activity (% of control), Rsk1(h) (Rsk1(h)): 2 % of control

Fc1ccc(-c2n[nH]c3ccc(-c4n[nH]c(C5CCCC5)n4)cc23)cc1 [CC006, 5-(5-Cyclopentyl-1H-[1,2,4]triazol-3-yl)-3-(4-fluoro-phenyl)-1H-indazole, reference compound]
Inhibitory activity (% of control), AMPK(r) (AMPK(r)): 74 % of control | Inhibitory activity (% of control), Blk(m) (Blk(m)): 60 % of control | Inhibitory activity (% of control), CaMKII(r) (CaMKII(r)): 82 % of control | Inhibitory activity (% of control), MAPK2(h) (MAPK2(h)): 3 % of control | Inhibitory activity (% of control), PKCε(h) (PKCε(h)): 82 % of control | Inhibitory activity (% of control), Rsk1(h) (Rsk1(h)): 43 % of control

O=C(NC1CCCC1)c1cccc(-c2n[nH]c3ccc(-c4nc[nH]n4)cc23)c1 [CC007, 3-(5-(1H-1,2,4-triazol-3-yl)(1H-indazol-3-yl))phenyl-N-cyclopentylcarboxamide, reference compound]
Inhibitory activity (% of control), AMPK(r) (AMPK(r)): 74 % of control | Inhibitory activity (% of control), Blk(m) (Blk(m)): 76 % of control | Inhibitory activity (% of control), CaMKII(r) (CaMKII(r)): 68 % of control | Inhibitory activity (% of control), MAPK2(h) (MAPK2(h)): 3 % of control | Inhibitory activity (% of control), PKCε(h) (PKCε(h)): 79 % of control | Inhibitory activity (% of control), Rsk1(h) (Rsk1(h)): 51 % of control
